Values quoted from earlier work in patent US20260216122A1, “PHARMACEUTICAL COMPOSITION COMPRISING ENAVOGLIFLOZIN AND METFORMIN” (DAEWOONG PHARMACEUTICAL CO., LTD., priority 2022, published 2026).
Read-outs that look alike come from different tables or passages of the source.

In the case of `OC[C@H]1O[C@@H](c2cc(Cc3ccc(C4CC4)cc3)c(Cl)c3c2CCO3)[C@H](O)[C@@H](O)[C@@H]1O` [enavogliflozin, (2S,3R,4R,5S,6R)-2-(7-chloro-6-(4-cyclopropylbenzyl)-2,3-dihydrobenzofuran-4-yl)-6-(hydroxymethyl)tetrahydro-2H-pyran-3,4,5-triol], the Tmax (enavogliflozin) is given as “approximately 1 hour”.
In the case of `CN(C)C(=N)N=C(N)N` [Metformin], the Tmax (metformin, administered after a meal) is given as “approximately 6 hours” and the Tmax (metformin, administered before a meal) is given as “approximately 4 hours”.
